Like-named read-outs stand apart in the source and are kept apart here.
How the values were obtained:
E. coli MetAP = E. coli MetAP (Escherichia coli, UniProt P0AE18); experiment: MetAP inhibitory activity, Met-Gly-Met-Met substrate, HPLC detection of Gly-Met-Met; type: biochemical; settings: for inhibition at 25 µM: read-out: E. Coli % inhibition; for E. Coli % inhibition: single concentration: inhibitor 25 µM, enzyme 50 nM, 20 minutes substrate incubation at 37 °C
Protocol: (§1) The below protocol describes the measurement of the inhibitory activity of the compounds of the present invention by using E. coli MetAP, hsMetAP-I, and hsMetAP-II.
(§2) Inhibition activity of compounds was studied using the tetrapeptide substrate Met-Gly-Met-Met (Bachem) followed by HPLC analysis of the product Gly-Met-Met. The assay was performed in 96 well plates (Greiner) at a total reaction volume of 100 µl. […] A positive control with DMSO solution instead of inhibitor at the corresponding concentration was prepared. Then the substrate Met-Gly-Met-Met was added to a final concentration of 400 µM. After an incubation period of 15 minutes (HsMetAP-I), 20 minutes (EcMetAP) or 60 minutes (HsMetAP-II) at 37 °C, the enzyme reaction was stopped by adding 10 µl 4 % trifluoroacetic acid. The plate was centrifuged at 1000 x g for 10 minutes.
(§3) Detection of the product Gly-Met-Met was performed by HPLC (Jasco), and typically using the following, or equivalent conditions: C18 column (Dr. Maisch, ReproSil-Pur® 120 ODS-3, 3 µm, 50 x 2 mm). 80 µl of sample were applied on the column and eluted with mobile phase A (water and 0.1 % trifluoroacetic acid, filtered, degassed) and B (acetonitrile and 0.1 % trifluoroacetic acid, degassed) over 8 minutes.
(§4) Percentage inhibition was calculated as the relation of Gly-Met-Met amount resulting in inhibited and uninhibited enzyme reaction (positive control). […] The values were determined in relation to positive controls with equal DMSO contents. The inhibition values for the varying concentrations of inhibitor were then fitted to a logarithmic dose-response curve and the IC50 values were calculated from the equation thus obtained.

hsMetAP-I = hsMetAP-I (Homo sapiens, UniProt P53582); experiment: as above; type: biochemical, hs; settings: for inhibition at 25 µM: read-out: hsMetAP-I % inhibition
Protocol: as §1, §2, §3, §4

hsMetAP-II = hsMetAP-II (Homo sapiens, UniProt P50579); experiment: as above; type: biochemical, hs
Chain of hsMetAP-II (P50579 whole entry): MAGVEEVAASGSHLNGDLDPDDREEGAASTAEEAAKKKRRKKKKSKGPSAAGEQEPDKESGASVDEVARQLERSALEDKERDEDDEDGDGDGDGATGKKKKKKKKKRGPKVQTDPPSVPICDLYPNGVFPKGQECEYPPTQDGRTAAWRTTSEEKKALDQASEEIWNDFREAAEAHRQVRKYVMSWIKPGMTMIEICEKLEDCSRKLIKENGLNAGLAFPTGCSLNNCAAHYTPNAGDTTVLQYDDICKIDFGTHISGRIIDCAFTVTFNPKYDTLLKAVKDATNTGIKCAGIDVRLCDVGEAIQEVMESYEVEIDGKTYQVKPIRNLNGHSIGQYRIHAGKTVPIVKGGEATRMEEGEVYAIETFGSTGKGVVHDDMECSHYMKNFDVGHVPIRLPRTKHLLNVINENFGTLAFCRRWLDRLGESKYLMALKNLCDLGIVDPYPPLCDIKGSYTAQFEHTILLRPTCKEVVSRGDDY
Protocol: as §1
Inhibition activity of compounds was studied using the tetrapeptide substrate Met-Gly-Met-Met (Bachem) followed by HPLC analysis of the product Gly-Met-Met. The assay was performed in 96 well plates (Greiner) at a total reaction volume of 100 µl. […] Then the substrate Met-Gly-Met-Met was added to a final concentration of 400 µM. After an incubation period of 15 minutes (HsMetAP-I), 20 minutes (EcMetAP) or 60 minutes (HsMetAP-II) at 37 °C, the enzyme reaction was stopped by adding 10 µl 4 % trifluoroacetic acid. The plate was centrifuged at 1000 x g for 10 minutes.
as §3, §4

[1] = system: human umbilical vein endothelial cells (HUVEC); experiment: HUVEC growth arrest, crystal violet staining; type: cell-based; settings: Homo sapiens, HUVEC, 240 h, growth over 10 days, 0-100 µM, OD at 595 nm; read-out: HUVEC IC50
Description: For the measurement of the HUVEC growth arrest (Example 19) and the used materials and equipment were:
• Cells: Primary human umbilical vein cells (HUVEC) were obtained from GIBCO (Cat. C-015-5C). • Cell culture medium: Medium 200 supplemented with LSGS (Gibco, Cat. M-200-500). • Trypsin/EDTA (Gibco, Cat R-001-100) • Trypsin Neutralizer solution (Gibco, Cat R-002-100). • Crystal violet (Merck / Cat. no. 1408) • Ethanol (Riedel-de-Haen / Cat. no. 32205) • Acetic acid (Riedel-de-Haen / Cat. no. 33209) • Culture flasks: Coming, 430168 • 96 well plates: Greiner, 655 101
• Microtiter pipettes: •Brand Transferpette-8, • Gilson Pipetman 20 and 200 Laminar air flow cabinet: Gelman, Celaire • ELISA reader: Thermo, Multiskan Ascent • Microscope: Leitz Diavert • Balance: Sartorius RC 210 D • CO2 incubator: Heraeus CO2-Auto-Zero • Centrifuge: Heraeus Biofuge primo • Cell counter: Assistent, Neubauer hematocytometer
Crystal violet solution: • Crystal violet (Merck) was dissolved in ethanol (PA quality, Roth) to a concentration of 10 %. The solution was diluted with ddH2O 1:20.
Test compounds: • Compounds of the present invention were dissolved at a concentration of 10 mM in DMSO (Roth, Cat. 47201). Stock solutions of test compounds were diluted 1:10 not earlier than 1 hour before the assay was made.
• 1. HUVEC cells were seeded in 96-well plates ([…]). • 2. 6 hours later test compounds were added in triplicates Concentrations of test compound: 0, 1.6, 3.2, 6.3, 12.5, 25, 50, 100 µM. Fresh medium and test compounds were added every 48 hr. • 3. One 96 well plate (t=0) with untreated cells was fixed at the same time point as treatment of cells with test compounds was initiated. • 4. Test plates were incubated for 10 days in a CO2 incubator. • 5. Fixation of cells: Wells were washed with 100 µL/well PBS. PBS was decanted and 100 µL of 3 % formaldehyde/well was added. After 5 min, formaldehyde was decanted and plates were dried upside down on blotting paper overnight at room temperature. • 6. Staining: 0.1 mL of crystal violet solution was added to each well with a 12-channel pipette. After incubation for 5 min at room temperature, the crystal violet solution was decanted and plates were washed 5 x by submersion in 3 L fresh water. • 7. After drying (plates were dried on blotting paper upside down overnight) 0.1 mL of ethanol/acetic acid (99:1) was added to each well and the optical density at 595 nm was determined in an ELISA reader.
The evaluation of the growth inhibitory activity was carried out as follows: • Definitions: Growth: Mean OD at t=10 d - mean OD at t=0. • Evaluation: Dose response curves were established by plotting growth against concentration of compounds using Microsoft Excel.

[2] = single concentration: inhibitor 25 µM, enzyme 50 nM, 15 minutes substrate incubation at 37 °C
[3] = hsMetAP-II IC50, enzyme 50 nM, 400 µM Met-Gly-Met-Met, 60 minutes at 37 °C
[4] = read-out: hsMetAP-II % inhibition, single concentration: inhibitor 25 µM, enzyme 50 nM, 60 minutes substrate incubation at 37 °C
[5] = single concentration: inhibitor 25 µM, enzyme 50 nM, 60 minutes substrate incubation at 37 °C, read-out: hsMetAP-II % inhibition
[6] = single concentration: inhibitor 25 µM, enzyme 50 nM, 60 minutes substrate incubation at 37 °C
[7] = enzyme 50 nM, 400 µM Met-Gly-Met-Met, 60 minutes at 37 °C, read-out: hsMetAP-II IC50

Chain of E. coli MetAP (P0AE18 whole entry): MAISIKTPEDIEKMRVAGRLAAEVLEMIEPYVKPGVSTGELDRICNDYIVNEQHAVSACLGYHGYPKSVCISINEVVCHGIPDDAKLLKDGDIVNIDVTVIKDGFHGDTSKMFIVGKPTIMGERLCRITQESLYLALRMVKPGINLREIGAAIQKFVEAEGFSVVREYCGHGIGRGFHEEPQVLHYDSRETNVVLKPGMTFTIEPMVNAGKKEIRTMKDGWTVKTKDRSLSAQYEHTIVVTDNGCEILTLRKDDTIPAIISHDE

SMILES | inhibition at 25 µM (E. coli MetAP) | hsMetAP-I % inhibition (hsMetAP-I; [2]) | inhibition at 25 µM (hsMetAP-II; [4]) | E. Coli % inhibition (E. coli MetAP) | inhibition at 25 µM (hsMetAP-II; [5]) | other results
CC(C)NC(=O)O[C@@H]1CC[C@@]2(CO2)c2c1nnn2Cc1ccccc1 (racemic) [UWU-XII-128-C] | 18 ± 2% | Inactive | 60 ± 5% | – | – | IC50 (hsMetAP-II; [3]): 18 ± 9 µM; IC50 [1]: 9.5 µM
O=C1CCC2(CO2)c2c1ncn2Cc1ccccc1 (stereo not drawn) [JL-III-084-C] | – | Inactive | – | Inactive | 24 ± 1% | –
Cn1cnc2c1C1(CCC2=O)CO1 (racemic) [JL-II-136-A] | – | Inactive | – | Inactive | – | hsMetAP-II % inhibition (hsMetAP-II; [6]): Inactive
COc1ccc(Cn2nnc3c2C2(CCC3OC(=O)NCC(N)=O)CO2)cc1 (stereo not drawn) [UWU-XII-143-A] | 12 ± 1% | Inactive | 100% | – | – | IC50 (hsMetAP-II; [3]): 0.23 ± 0.02 µM; IC50 [1]: 2.6 µM
Cc1ccccc1Cn1nnc2c1C1(CCC2=O)CO1 (stereo not drawn) [BK-I-181-B] | – | Inactive | – | Inactive | 100% | IC50 (hsMetAP-II; [7]): 5.1 ± 2.9 µM
COc1ccc(Cn2nnc3c2[C@@]2(CC[C@@H]3OC(=O)NC(C)C)CO2)cc1 [(-)-UWU-XII-131-A] | – | Inactive | – | Inactive | – | IC50 [1]: 8.2 µM
O=C1CCC2(CO2)c2c1nnn2Cc1ccccc1 (stereo not drawn) [HHS-I-027-B] | – | Inactive | – | Inactive | 64.5 ± 0.1% | IC50 (hsMetAP-II; [7]): 13.7 ± 3.4 µM
COc1ccc(Cn2nnc3c2[C@]2(CC[C@H]3OC(=O)NC(C)C)CO2)cc1 (racemic) [UWU-XII-131-A] | – | Inactive | – | Inactive | – | IC50 [1]: 0.4 µM
COc1ccc(Cn2nnc3c2C2(CCC3OC(=O)C=Cc3cc(OC)c(OC)c(OC)c3)CO2)cc1 (racemic) [UWU-XII-035-A] | – | Inactive | 94 ± 4% | Inactive | – | inhibitory effect on MetAP-II (in words) (hsMetAP-II): good inhibitory effect; IC50 (hsMetAP-II; read-out: hsMetAP-II IC50, enzyme 50 nM, 400 µM Met-Gly-Met-Met, 60 minutes at 37 °C): 0.5 ± 1 µM
O=C(O[C@@H]1CC[C@@]2(CO2)c2c1nnn2Cc1ccc2ccccc2c1)c1ccccc1 [JL-III-132-D] | – | Inactive | – | Inactive | 15 ± 5% | –
COc1ccc(Cn2nnc3c2[C@@]2(CC[C@H]3OC(=O)NC(C)C)CO2)cc1 (racemic) [UWU-XII-131-C] | – | Inactive | – | Inactive | – | IC50 [1]: 2.5 µM
O=C(O[C@@H]1CC[C@]2(CO2)c2c1nnn2Cc1ccc2ccccc2c1)c1ccccc1 (racemic) [JL-III-132-C] | 22 ± 7% | Inactive | 63 ± 5% | – | – | IC50 (hsMetAP-II): 3.7 ± 0.3 µM
O=C(O[C@@H]1CC[C@]2(CO2)c2c1nnn2Cc1ccccc1)c1ccccc1 (racemic) [JL-III-147-A] | 45 ± 7% | – | 93.3 ± 2.1% | – | – | inhibition at 25 µM (hsMetAP-I): 15 ± 1%; IC50 (hsMetAP-II): 1.3 ± 0.01 µM
O=C(O[C@@H]1CC[C@@]2(CO2)c2c1nnn2Cc1ccccc1)c1ccccc1 (racemic) [JL-III-147-B] | 36 ± 11% | Inactive | 59 ± 2% | – | – | IC50 (hsMetAP-II): 19.1 ± 9 µM
CC(C)c1ccc(Cn2nnc3c2C2(CCC3=O)CO2)cc1 (stereo not drawn) [JL-III-138-A] | 50 ± 6% | – | – | – | 84 ± 3% | inhibition at 25 µM (hsMetAP-I; [2]): 16 ± 2%; IC50 (hsMetAP-II; [7]): 5.5 ± 3 µM
Cn1nnc2c1C1(CCC2=O)CO1 (racemic) [CJ-II-011] | 20 ± 2% | – | – | – | – | inhibition at 25 µM (hsMetAP-I; [2]): 14 ± 7%; hsMetAP-II % inhibition (hsMetAP-II; [6]): Inactive
COc1ccc(Cn2nnc3c2[C@@]2(CC[C@H]3OC(=O)/C=C/c3cc(OC)c(OC)c(OC)c3)CO2)cc1 (racemic) [UWU-II-035-C] | – | Inactive | 85 ± 11% | Inactive | – | IC50 (hsMetAP-II): 2.02 ± 0.03 µM
CC(C)Cn1cnc2c1C1(CCC2=O)CO1 (stereo not drawn) [JL-II-120-B] | – | Inactive | – | Inactive | 12 ± 6% | –
O=C1CCC2(CO2)c2c1nnn2Cc1ccc2ccccc2c1 (stereo not drawn) [HHS-I-020-C] | 24 ± 8% | Inactive | – | – | 84.1 ± 3.2% | IC50 (hsMetAP-II; [7]): 2.7 ± 0.1 µM
CCn1nnc2c1C1(CCC2=O)CO1 (stereo not drawn) [CJ-II-007] | 22 ± 5% | Inactive | – | – | – | hsMetAP-II % inhibition (hsMetAP-II; [6]): Inactive
CCCn1cnc2c1C1(CCC2=O)CO1 (racemic) [JL-II-116-A] | – | Inactive | – | Inactive | – | hsMetAP-II % inhibition (hsMetAP-II; [6]): Inactive
CCCCCCCCn1nnc2c1C1(CCC2=O)CO1 (stereo not drawn) [CJ-II-010] | 14 ± 7% | – | – | – | 50 ± 2% | inhibition at 25 µM (hsMetAP-I; [2]): 12.1 ± 1.5%
CC(C)c1ccc(Cn2nnc3c2[C@]2(CC[C@H]3OC(=O)c3ccccc3)CO2)cc1 (racemic) [UWU-XII-036-A] | 20 ± 8% | Inactive | 59 ± 5% | – | – | IC50 (hsMetAP-II): 4.7 ± 0.3 µM
CCn1cnc2c1C1(CCC2=O)CO1 (stereo not drawn) [JL-II-137-A] | – | Inactive | – | Inactive | – | hsMetAP-II % inhibition (hsMetAP-II; [6]): Inactive
CC(C)CCn1cnc2c1C1(CCC2=O)CO1 (stereo not drawn) [JL-II-115-A] | 25 ± 8% | Inactive | – | – | – | hsMetAP-II % inhibition (hsMetAP-II; [6]): Inactive
